These results are taken from patent publication US8834919B2, “Lipid emulsions in the treatment of systemic poisoning” (priority 1998, dated 2014).

One data set has as its system Male Sprague-Dawley rats. Put plainly: Pretreatment with lipid emulsion: dose-response to bupivacaine induced asystole in rats (protocol 1). Type of data set: in vivo, rat. From the text:
Studies were undertaken to assess the ability of a lipid emulsion to shift the dose-response to drug-induced asystole (heart stoppage) in rats. Pretreatment with a lipid emulsion increased the dose of bupivacaine (a local anesthetic) required to induce asystole. Racemic bupivacaine hydrochloride was purchased from Sigma (St. Louis, Mo.) while tritiated bupivacaine was purchased from Moravek Biochemicals (Brea, Calif.). Intralipid® was purchased from Baxter Healthcare (Deerfield, Ill.). Male Sprague-Dawley rats weighing between about 250 grams to about 370 grams were used in all experiments.
Animals were first anesthetized in a bell jar with isoflurane to allow intubation, then mechanically ventilated with about 1.75% isoflurane in about 100% oxygen using a Harvard rodent ventilatory model 680 in conjunction with a tidal volume of 3 ml and a starting rate of about 40 breaths per minute. […] Electrocardiogram (BCG) was monitored via three subcutaneous needle electrodes in each rat. […]
All animals were allowed to stabilize for about 15 minutes while arterial blood pressure and ECG were monitored. […]
Immediately following pretreatment, all animals received an infusion of about 0.75% bupivacaine via the internal iliac catheter at a rate of 10 mg/kg/min to an end point of about ten seconds of asystole. […] The cumulative lethal dose of bupivacaine was calculated in mg/kg for all animals. […]

Data set [1] in a line: Resuscitation from a toxic bupivacaine dose with lipid emulsion (protocol 2). To be noted: male, Sprague-Dawley, rat, in vivo, iv, resuscitation with saline infusion after iv bupivacaine bolus; probit analysis. The method, then: Bupivacaine dose and plasma concentrations were analyzed by Kruskal-Wallis one way analysis of variance on ranks. Post hoc testing of both data sets was performed by Student-Newman-Keul's method for multiple comparisons (SigmaStat, Jandel Scientific/San Rafael, Calif.). Cumulative bupivacaine dose data were nonparametric and median values were compared by differences of ranks. Plasma bupivacaine concentration data were parametric and differences in mean values were evaluated. Probit analysis (CalcuSyn, Biosoft/Cambridge, England) was used to compare bupivacaine LD50 values in the saline and lipid portions. The difference in survival of the two groups at 15 mg/kg bupivacaine was further evaluated using a z test of proportions. Statistical significance in all experiments was taken as p less than or equal to 0.05.
Experiments were performed to evaluate the ability of a lipid emulsion to resuscitate an animal from a toxic dose of bupivacaine. All animals were anaesthetized, instrumented and stabilized at about 1.75% isoflurane as described in Example 1, and arterial blood pressure and ECG were continuously monitored. […] Survival was scored about 5 minutes after the bupivacaine bolus and required both heart rate greater than about 100 beats per minute and systolic blood pressure greater than about 60 mmHg. […]

Data set [2] can be described thus: Bupivacaine lipid:aqueous partition in a mixture of Intralipid and rat plasma. It is filed as physicochemical. The method, then:
The bupivacaine lipid:aqueous partition coefficient was determined for a mixture of Intralipid® and rat plasma. Blood obtained from rats by direct heart puncture under halothane anesthesia was centrifuged and the plasma was separated. Equal volumes of about 30% Intralipid® and plasma (approximately 2 ml each) were combined and vortexed. Approximately 1.0 μCi of titriated bupivacaine (specific activity 0.81 Ci/mole) was added to the mixture to a final bupivacaine concentration of about 93 μg/ml. This mixture was vortexed again then separated into aliquots of about 1 ml. These aliquots were allowed to sit undisturbed for about one hour at about 38° C., then centrifuged at about 10,000 g for about 10 minutes. High speed centrifugation separated each of these mixtures into a clear aqueous phase (about 0.85 ml) under a lipid phase (about 0.15 ml). The latter comprised a clear layer beneath a very thin white cap. The cap was removed then redissolved in saline to a total volume of about 1 ml. Aliquots of this solution and the aqueous plasma phase were then analyzed for tritiated bupivacaine content by liquid scintillation counting. The bupivacaine lipid:aqueous partition coefficient was given by the ratio of bupivacaine in the combined lipid phase (following correction for saline dilution) to the bupivacaine in the aqueous phase. This experiment was performed in triplicate.

Data set [3] is classed as in vivo, rat. Conditions: saline pretreatment (group 1); +/- SEM. On the procedure:
Immediately following pretreatment, all animals received an infusion of about 0.75% bupivacaine via the internal iliac catheter at a rate of 10 mg/kg/min to an end point of about ten seconds of asystole. Blood was then drawn from the aorta into a heparinized syringe for plasma bupivacaine determinations. The cumulative lethal dose of bupivacaine was calculated in mg/kg for all animals.
Plasma bupivacaine concentrations were determined by high performance liquid chromatograph (HPLC) after the samples had been extracted with hexane. The method of hexane extraction was validated with bupivacaine spiked samples and provided greater than about 95% recovery of bupivacaine from both normal and lipemic plasma. Thus, plasma bupivacaine concentrations reflected total bupivacaine content in both the aqueous and lipid phases of the specimen. […] The drugs were detected at a wavelength of about 215 nm.
Bupivacaine dose and plasma concentrations were analyzed by Kruskal-Wallis one way analysis of variance on ranks. […] Plasma bupivacaine concentration data were parametric and differences in mean values were evaluated. […] The difference in survival of the two groups at 15 mg/kg bupivacaine was further evaluated using a z test of proportions. […]

The conditions of data set [4]: octanol:water; P = [organic]/[aqueous]; cited from earlier work.
A further data set has as its system rats. Put plainly: Pretreatment with lipid emulsion: cocaine toxicity in rats. To be noted: control (saline), cocaine iv 5 mg/kg/min. It is filed as in vivo, rat. The method, then: Because of the significant potential benefit, experiments were performed to test an infusion of a lipid emulsion as a method of treating cocaine toxicity. Anesthetized, ventilated rats were infused with a lipid emulsion (20% Intralipid® at 10 ml/kg for 2 minutes) and then administered an intravenous infusion of cocaine at 5 mg/kg/min to hypotension (blood pressure is less than 40 mmHg) or asystole (no heartbeat for 5 seconds). […] Thus, pretreatment with a lipid emulsion composition shifts the dose-response of cocaine in much the same way as bupivacaine. This is an expected result given the similar properties and effects between cocaine and bupivacaine. These findings indicate that lipid infusion can be used to treat patients experiencing acute cardiovascular compromise in cocaine overdose.

Broadly, the LD50 is the dose expected to kill half of the subjects tested. A lower LD50 goes with a more toxic substance. In general, logP refers to the decadic logarithm of the partition coefficient of the neutral form, usually between octanol and water. Turning to `CCCCN1CCCCC1C(=O)Nc1c(C)cccc1C` (racemic) [bupivacaine], in the data set with Male Sprague-Dawley rats (saline pretreatment (group 1), 0.75% bupivacaine 10 mg/kg/min to asystole, n=6), the “Median bupivacaine lethal dose” value worked out at 17.8 mg/kg. The “lethal bupivacaine dose, lower end of range among all animals” value in the data set with Male Sprague-Dawley rats (single animal receiving saline pretreatment) is recorded as “about 12.7 mg/kg”. This compound showed an LD50 at 5 min in data set [1] of 12.5 mg/kg. Also, the “percent of total bupivacaine dissolved in the lipid phase” value in data set [2] (equal volumes of about 30% Intralipid and plasma, lipid volume about 15% of total) is “about 75.3%”. Moreover, the “lipid:aqueous ratio of bupivacaine concentrations” value in data set [2] (equal volumes of about 30% Intralipid and rat plasma, about 38 °C, about 93 μg/ml, +/- standard error, triplicate) is recorded as 11.9+/−1.77. Also, in data set [3], the “mean plasma bupivacaine concentration at the time of asystole” value came to 93.3 ± 7.6 µg/mL. Moreover, the logP in data set [4] was 3.64.
For the compound `CC(NC(C)(C)C)C(=O)c1cccc(Cl)c1` (stereo not drawn) [bupropion], the logP in data set [4] is 3.47.
In the case of `COC(=O)[C@H]1[C@@H](OC(=O)c2ccccc2)C[C@@H]2CC[C@H]1N2C` [cocaine], the time to asystole in the data set with rats worked out at 368 ± 27 s. Further, in the data set on rats (n=8), the “mean time to hypotension (40 mmHg)” value came to 143 ± 22 s.
Consider `COc1ccc([C@@H]2Sc3ccccc3N(CCN(C)C)C(=O)[C@@H]2OC(C)=O)cc1` [diltiazem], for which, in data set [4], the logP is given as 4.53.
With `Nc1nnc(-c2cccc(Cl)c2Cl)c(N)n1` [lamotrigine], in data set [4], the logP is −0.19.
Turning to `Cc1cccc(C)c1NC(=O)C1CCCCN1C` (stereo not drawn) [mepivacaine], in data set [4], the logP was 2.04.
`CCCN1CCCC[C@H]1C(=O)Nc1c(C)cccc1C` [ropivacaine]: in data set [4], the logP is 3.11.
As to `CCCCNc1ccc(C(=O)OCCN(C)C)cc1` [tetracaine], the lipophilicity (logP) in data set [4] is 3.49.
